# Experimental data from PubChem BioAssay AID1996.
# Conditions: buffer; pH 7.4; 200.0 µM
row,solubility kinetic,Structure (SMILES)
1,10 µg/mL,CC(=O)N(/C=C1\SC(=S)N(c2ccccc2)C1=O)c1ccccc1
2,> 33.9 µg/mL,Cn1cnc2c(cnn2-c2ccccc2)c1=O
3,45.4 µg/mL,Cc1ccc(C)c(NC(=O)C2CC(O)CN2C(=O)Oc2ccccc2)c1 (stereo not given)
4,> 41.9 µg/mL,N#CCCN(Cc1ccccc1)C(=O)Nc1ccccc1
5,> 52.4 µg/mL,CC(=O)NCCc1ccc(C(=O)Cn2cnc3ccccc3c2=O)cc1
6,39.4 µg/mL,O=C(CNC(=O)c1ccccc1)NCc1nc2ccccc2[nH]1
7,> 45.3 µg/mL,COc1cccc(CNC(=O)CCNC(=O)c2ccco2)c1
8,2.7 µg/mL,O=c1cnc2ccccc2n1Cc1ccc(Br)cc1
9,51.9 µg/mL,Cc1n(Cc2ccccc2)c2ccccc2[n+]1Cc1ccccc1.[Cl-]
10,2.8 µg/mL,CCOC(=O)c1ccc(S(=O)(=O)N2CCN(C/C=C/c3ccccc3)CC2)cc1
11,22.8 µg/mL,CCc1ccccc1NC(=O)CN(C)Cc1c(O)ccc2ccccc12
12,> 42.9 µg/mL,CCOc1ccc(/C=N/NC(=O)Cn2ccnc2C)cc1
13,> 46.5 µg/mL,O=C(COC(=O)Cc1ccsc1)Nc1ccccc1Cl
14,9 µg/mL,COc1cc(SC)ccc1C(=O)Nc1ccccn1
15,2.9 µg/mL,COc1ccc(OCc2cc(=O)[nH]c3ccccc23)cc1
16,3.8 µg/mL,CCOc1ccc(CNC(=O)Nc2ccccc2)cc1
17,27.4 µg/mL,CCOC(=O)c1nc(NCc2ccccc2)c2ccccc2n1
18,36.5 µg/mL,CCc1ccc(CN(C)C(C)C(=O)NCc2ccccc2)cc1 (stereo not given)
19,9.2 µg/mL,CC(C)C(=O)Nc1c(-c2ccccc2)c(=O)c2ccccc2n1C
20,> 47.6 µg/mL,CCC(OC(=O)c1ccco1)C(=O)NCc1ccc(OC)cc1 (stereo not given)
21,> 44.7 µg/mL,O=C(Nc1ccc(F)cc1)C(=O)C1C(=O)Nc2ccccc21 (stereo not given)

row,solubility kinetic,Structure (SMILES)
1,47.4 µg/mL,O=C(NCCc1ccccc1)C1CCN(C(=O)c2ccc(F)cc2)CC1
2,5.4 µg/mL,COc1ccc(-c2noc(CCC(=O)NCCc3ccccc3)n2)cc1
3,47.6 µg/mL,CCc1ccnc(NC(=O)NS(=O)(=O)c2ccc(C)cc2)c1
4,12.9 µg/mL,Nc1ccccc1C(=O)NCCCN1CCN(c2cccc(Cl)c2)CC1
5,> 47.2 µg/mL,COc1ccc(OC)c(/C=N/NC(=O)C(O)c2ccccc2)c1 (stereo not given)
6,42.8 µg/mL,CCN(CC)c1nc(N2CCOCC2)nc2ccccc12.Cl
7,> 55.1 µg/mL,COc1ccccc1NC(=O)C1CCCN(C(=O)NCc2ccccc2)C1 (stereo not given)
8,51 µg/mL,CS(=O)(=O)Nc1ccccc1C(=O)NCCSc1ccccc1
9,38.7 µg/mL,NC(=O)CN1C(=O)C(=O)N(Cc2ccccc2)C1=O
10,3.9 µg/mL,CCCOc1ccccc1Cn1c(=O)oc2ccccc21
11,> 41.9 µg/mL,Cc1ccc(NC(=O)CCc2c[nH]c3ccccc23)nc1
12,5.7 µg/mL,CC(=O)c1sc(NC(=O)COc2ccccc2)nc1C
13,7.8 µg/mL,COc1cccc(C(=O)NC2CCCc3ccccc32)c1 (stereo not given)
14,2.1 µg/mL,Cc1ccc(CNC(=O)c2c(-c3ccccc3)noc2C)cc1
15,> 45.7 µg/mL,Cc1ccc(C(C)C)cc1S(=O)(=O)NCc1ccccn1
16,40.2 µg/mL,CC(C)(C)C(=O)N(Cc1ccccc1)c1ccccn1
17,0.4 µg/mL,Cc1ccc(CN(Cc2ccco2)C(=S)Nc2ccccc2C)cc1
18,17.9 µg/mL,Nc1ccc(-c2cc3ccccc3oc2=O)cc1
19,> 41 µg/mL,CSc1ncc(C(=O)Nc2ccccc2C)c(C)n1
20,30.7 µg/mL,CCOC(=O)[C@@H]1CCN(Cc2ccccc2)C[C@H]1c1ccccc1.Cl

# More lines, now with the values behind:
row,Structure (SMILES),solubility kinetic
1,O=C(O)c1cn(C2CCCCC2)c2ccccc2c1=O,> 40.7 µg/mL
2,CC(Oc1ccccc1)C(=O)NC1CCCCCCC1 (stereo not given),> 41.3 µg/mL
3,CC(C)(C)c1ccc(C(=O)NC(=S)N2CCCC2)cc1,7.2 µg/mL
4,COc1cc(-c2nnc(SCC(=O)Nc3ccc(C(=O)O)cc3)o2)cc(OC)c1OC,> 66.8 µg/mL
5,COc1ccc(OCC(=O)OCC(=O)Nc2cc(S(=O)(=O)N3CCOCC3)ccc2Cl)cc1,62.5 µg/mL
6,Cc1ccc(CN2CCN(C(=O)c3cccc4ccccc34)CC2)cc1.O=C(O)C(=O)O,59.6 µg/mL
7,NC(=O)C1CCCCc2c1[nH]c1ccc(Cl)cc21 (stereo not given),> 39.4 µg/mL
8,Cc1noc2ncnc(N3CCCCC3)c12,27.8 µg/mL
9,Cc1ccc(S(=O)(=O)Nc2ccc(Cl)cn2)cc1C,3.4 µg/mL
10,CC1CCCC(C)N1C(=O)COC(=O)c1ccco1 (stereo not given),> 39.8 µg/mL
11,CN(Cc1nc2ccccc2[nH]1)Cc1nc(CC2CC2)no1,> 44.6 µg/mL
12,O=C1OC2(O)C3C4C=CC(C4)C3C(=O)N2c2ccccc21 (stereo not given),> 42.5 µg/mL
13,O=C(Cc1ccc(Br)cc1)NCCN1CCOCC1,> 49.1 µg/mL
14,CCOC(=O)C1CCN(C(=O)COc2ccc3c(c2)OCO3)CC1,> 50.3 µg/mL
15,Cc1ccc(C)n1-c1ccc(C#N)cn1,26.6 µg/mL
16,CCN(CC)CCNC(=O)C(=O)Nc1ccc(C(=O)OC)cc1,> 48.2 µg/mL
17,Cc1cc2oc(=O)cc(CN(C)Cc3ccccc3Cl)c2cc1C,< 0.7 µg/mL
18,CSc1nc(-c2cccs2)c(C#N)c(=O)[nH]1,37.3 µg/mL
19,Cc1cnc(NC(=O)C2CC(=O)N(c3ccc4c(c3)OCCO4)C2)s1 (stereo not given),20.2 µg/mL
20,COc1ccc(-n2cnnc2SCC(=O)NC2CCCCC2)cc1,> 52 µg/mL
21,CCOCCCNC1=C(Cl)C(=O)c2ccccc2C1=O,31.9 µg/mL
22,O=C1CCCN1CCC1CCCCN1Cc1nc(-c2cnccn2)no1 (stereo not given),> 53.5 µg/mL
23,C[n+]1cn(Cc2ccc(C#N)cc2)c2ccccc21.[Cl-],39.4 µg/mL
24,Cc1cccc(OCCSc2nc(N)cc(N)n2)c1,> 41.5 µg/mL
25,CC(C)CN1C(=O)N(c2ccc(Cl)cc2)C(C)(O)CC1(C)C (stereo not given),4.1 µg/mL
26,COc1ccc(C)cc1NC(=S)N1CCOCC1,> 40 µg/mL
27,O=C(CSc1ccc([N+](=O)[O-])cn1)Nc1ccc2c(c1)OCCO2,0.7 µg/mL

row,Structure (SMILES),solubility kinetic
1,Cn1ncc([N+](=O)[O-])c1C(=O)N1CCCCCC1,> 37.8 µg/mL
2,Cc1ccc2nc(SC(C)C(=O)N3CC(C)OC(C)C3)[nH]c2c1 (stereo not given),49.4 µg/mL
3,CCc1ccc2nc(SCC(=O)NCC3CCCO3)c(C#N)cc2c1 (stereo not given),1.9 µg/mL
4,Cc1ccc(NS(=O)(=O)c2ccc3c(c2)n(C)c(=O)n3C)c(C)c1,17.9 µg/mL
5,COCc1nc2oc3ccc(C)cc3c(=O)c2cc1C(=O)OC,3.9 µg/mL
6,Cc1cc(CNC(=O)COC(=O)C2CC3CCCC(C2)C3=O)cc(C)c1O (stereo not given),> 56 µg/mL
7,CC(=O)C1=C(O)C(=O)N(c2ccc(O)cc2)C1c1ccc(Cl)cc1 (stereo not given),42.6 µg/mL
8,COc1cccc(NC(=O)c2cnc(SC)nc2C)c1,> 43.4 µg/mL
9,O=S(=O)(O)c1cnccc1Nc1cccc(C(F)(F)F)c1,> 47.7 µg/mL
10,CC1CC(C)CN(C(C)C(=O)Nc2cc(S(=O)(=O)N3CCCCC3)ccc2Cl)C1 (stereo not given),< 0.3 µg/mL
11,COc1ccc(C=C(C#N)C#N)c(CSc2ccccn2)c1,2.1 µg/mL
12,COc1ccc(NC(=O)N2CCCc3ccccc32)c(OC)c1,45.3 µg/mL
13,COc1ccccc1-c1c(C)nn2c(N3CCOCC3)cc(C)nc12,> 50.8 µg/mL
14,Cc1ccc(C(=O)Nc2nccs2)s1,9.6 µg/mL
15,NC(=[NH2+])SCc1[nH+]cccc1O.[Cl-],35.3 µg/mL
16,CCOC(=O)c1cc(C#N)c(SCC(N)=O)[nH]c1=O,> 42.2 µg/mL
17,Cc1ccc(NC(=O)c2ccc3c(c2)OCCO3)nc1,> 40.5 µg/mL
18,CCN(CC)c1ccc(/C=C(/C#N)C(=O)NC(C)C)o1,38.6 µg/mL
19,C=CCn1c(N)cc(=O)nc1SCC(=O)Nc1ccc(C)cc1,14.8 µg/mL
20,Cc1cc(=O)[nH]c(Nc2ccc(Cl)cc2)n1,> 35.4 µg/mL
21,COC(=O)c1cc(Sc2cccc(Cl)c2Cl)ccn1,26.3 µg/mL
22,C=C(C)c1cccc(C(C)(C)NC(=O)Nc2nncs2)c1,> 45.4 µg/mL
23,O=C(N/C(=C\c1ccco1)C(=O)N1CCC(O)CC1)c1ccccc1,41.1 µg/mL
24,O=C(COc1ccc(F)cc1F)N1CCCCCCC1,> 42.5 µg/mL
25,Cn1cnnc1SCC(=O)NC1CCCC1,> 36 µg/mL
26,O=S(=O)(NC1C2CC3CC(C2)CC1C3)c1ccc(F)cc1 (stereo not given),23 µg/mL
27,Cc1ccc(/C=C(\C#N)C(=O)Nc2cccc(C)n2)cc1,< 0.2 µg/mL

row,Structure (SMILES),solubility kinetic
1,CCS(=O)(=O)N1CCC(C(=O)Nc2ccc(C(C)=O)cc2)CC1,> 50.8 µg/mL
2,CCC(C)NC(=O)CN1C(=O)NC2NC(=O)NC21 (stereo not given),> 38.3 µg/mL
3,CCOC(=O)C1CCN(C(=O)c2ccc(OC3CCN(C(=O)COC)CC3)cc2)CC1,45 µg/mL
4,CS(=O)(=O)N1Cc2ccccc2CC1C(=O)OCC(=O)NCCc1ccc(S(N)(=O)=O)cc1 (stereo not given),59.1 µg/mL
5,CC1CC(C)CN(S(=O)(=O)c2ccc(C(C)(C)C)cc2)C1 (stereo not given),< 0.7 µg/mL
6,COc1ccc(C(=O)NN2CCOCC2)cc1,> 35.4 µg/mL
7,CCC(C)NC(=O)CN1C(=O)C(CC)Sc2ccccc21 (stereo not given),> 46 µg/mL
8,COc1ccc(NC(=S)NC(=O)/C=C/c2ccc(F)cc2)cc1,< 0.4 µg/mL
9,Cc1ccc(NC2=NC(c3ccc(F)cc3)n3c(nc(C)cc3=O)N2)cc1 (stereo not given),5 µg/mL
10,COc1ccc(-c2noc(CCC(=O)NCC3CCCO3)n2)cc1 (stereo not given),> 49.7 µg/mL
11,CCN(CC)S(=O)(=O)c1cccc(NC2=NCC(C)S2)c1 (stereo not given),> 49.1 µg/mL
12,CC(NCC(=O)Nc1ccccc1C(=O)NC1CC1)c1cccs1 (stereo not given),> 51.5 µg/mL
13,Nc1ccncc1Cl,16.3 µg/mL
14,CCN1CSC(=S)N(Cc2ccc(OC)cc2)C1,38.6 µg/mL
15,COc1cc2cc(-c3ccc(OC)c(OC)c3C)nc(N)c2cc1OC,46.8 µg/mL
16,COc1cc(CN2CCCCCC2)cc(OC)c1OC.O=C(O)C(=O)O,> 55.4 µg/mL
17,CC(C)(C)S(=O)(=O)c1cnc(N2CCCC2)nc1N,37.9 µg/mL
18,O=C1CSC(c2ccc(F)cc2)N1c1c(F)cccc1F (stereo not given),31.2 µg/mL
19,Cc1ccc(C)c(NC(=O)CCN2CCCCC2)c1,> 39.1 µg/mL
20,CCc1cc2c(=O)oc(-c3ccc(Br)cc3)nc2s1,< 0.7 µg/mL
21,N#Cc1c(F)cccc1N1CCN(Cc2ccc3c(c2)OCO3)CC1,14.6 µg/mL
22,Cc1cccc(N)c1-c1c(C)cccc1N,> 31.8 µg/mL
23,O=C(c1ccc(-n2cccn2)cc1)N1CCc2ccccc2C1,> 45.5 µg/mL
24,Cn1c(=O)c(C(N)=S)cn(-c2ccccc2)c1=O,25.5 µg/mL
25,CCOC(=O)COc1c(Cl)cc(/C=C2\N=C(C)OC2=O)cc1OC,46.5 µg/mL
